For 19 molecules, IC50 results are on record in patent US9150566B2, “2-(1,2,3-triazol-2-yl)benzamide and 3-(1,2,3-triazol-2-YL)picolinamide derivatives as orexin receptor antagonists” (ACTELION PHARMACEUTICALS LTD., priority 2011, dated 2015).

The target of one series is human orexin-1 receptor (Homo sapiens (Human), UniProt O43613). The series can be described thus: In vitro intracellular calcium measurements (FLIPR), antagonistic activity on orexin-1 receptor. In kind it is cell-based. The following applies: read-out: IC50 OX1. As for the experimental part: (§1) In Vitro Assay: Intracellular Calcium Measurements:
(§2) Chinese hamster ovary (CHO) cells expressing the human orexin-1 receptor and the human orexin-2 receptor, respectively, are grown in culture medium (Ham F-12 with L-Glutamine) containing 300 μg/mL G418, 100 U/mL penicillin, 100 μg/mL streptomycin and 10% heat inactivated fetal calf serum (FCS). The cells are seeded at 20′000 cells/well into 384-well black clear bottom sterile plates (Greiner). The seeded plates are incubated overnight at 37° C. in 5% CO2.
(§3) Within the Fluorescent Imaging Plate Reader (FLIPR Tetra, Molecular Devices), antagonists are added to the plate in a volume of 10 μL/well, incubated for 120 min and finally 10 μL/well of agonist is added. Fluorescence is measured for each well at 1 second intervals, and the height of each fluorescence peak is compared to the height of the fluorescence peak induced by 3 nM orexin-A with vehicle in place of antagonist. […] Optimized conditions were achieved by adjustment of pipetting speed and cell splitting regime. The calculated IC50 values may fluctuate depending on the daily cellular assay performance. Fluctuations of this kind are known to those skilled in the art.
For orientation: Calcium flux is commonly read through the fluorescence of an indicator in the cells.

The target in the next series is human orexin-2 receptor (Homo sapiens (Human), UniProt O43614). Nature of the series: In vitro intracellular calcium measurements (FLIPR), antagonistic activity on orexin-2 receptor. The format is cell-based. The following applies: read-out: IC50 OX2. As for the experimental part: as §1, §2, §3
The target of another series is CYP3A4 (Homo sapiens (Human), UniProt P08684). The series can be described thus: CYP3A4 inhibition assay (human liver microsomes, testosterone 6β-hydroxylation). The following applies: read-out: CYP3A4 IC50, 40 μM testosterone. On the technique in general: Microsomes from liver hold many membrane-bound enzymes, among them those of drug oxidation.
Setting [1] is: CHO cells expressing human orexin-1 receptor, FLIPR, 3 nM orexin-A agonist, 120 min antagonist incubation, geometric mean if determined several times.
Setting [2] is: CHO cells expressing human orexin-2 receptor, FLIPR, 3 nM orexin-A agonist, 120 min antagonist incubation, geometric mean if determined several times.

Like-named read-outs stand apart in the source and are kept apart here.

Chain of human orexin-1 receptor (O43613 whole entry): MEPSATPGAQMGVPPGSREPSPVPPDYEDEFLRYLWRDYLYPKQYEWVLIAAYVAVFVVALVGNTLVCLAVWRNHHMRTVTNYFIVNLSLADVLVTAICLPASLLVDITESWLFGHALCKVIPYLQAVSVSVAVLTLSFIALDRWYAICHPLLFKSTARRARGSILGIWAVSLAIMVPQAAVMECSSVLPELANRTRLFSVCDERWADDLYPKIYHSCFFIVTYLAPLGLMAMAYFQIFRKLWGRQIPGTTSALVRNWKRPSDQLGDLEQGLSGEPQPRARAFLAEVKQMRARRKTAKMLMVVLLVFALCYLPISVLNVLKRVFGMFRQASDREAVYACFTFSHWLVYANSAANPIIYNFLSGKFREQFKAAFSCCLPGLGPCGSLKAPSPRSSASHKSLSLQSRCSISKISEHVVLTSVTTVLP
Chain of CYP3A4 (P08684 whole entry): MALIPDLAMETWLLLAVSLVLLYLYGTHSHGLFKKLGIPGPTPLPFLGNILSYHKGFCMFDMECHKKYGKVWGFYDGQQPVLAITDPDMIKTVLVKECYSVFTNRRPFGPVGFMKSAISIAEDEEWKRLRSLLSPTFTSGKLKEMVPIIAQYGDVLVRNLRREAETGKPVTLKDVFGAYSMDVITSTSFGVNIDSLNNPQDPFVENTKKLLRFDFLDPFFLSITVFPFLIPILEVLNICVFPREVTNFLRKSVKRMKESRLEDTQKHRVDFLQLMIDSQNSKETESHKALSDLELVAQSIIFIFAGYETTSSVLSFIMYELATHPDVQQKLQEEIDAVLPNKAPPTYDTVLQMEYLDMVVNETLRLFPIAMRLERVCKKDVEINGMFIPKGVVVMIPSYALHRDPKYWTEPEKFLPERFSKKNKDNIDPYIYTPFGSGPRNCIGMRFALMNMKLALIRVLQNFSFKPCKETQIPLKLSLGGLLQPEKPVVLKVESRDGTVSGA
Chain of human orexin-2 receptor (O43614 whole entry): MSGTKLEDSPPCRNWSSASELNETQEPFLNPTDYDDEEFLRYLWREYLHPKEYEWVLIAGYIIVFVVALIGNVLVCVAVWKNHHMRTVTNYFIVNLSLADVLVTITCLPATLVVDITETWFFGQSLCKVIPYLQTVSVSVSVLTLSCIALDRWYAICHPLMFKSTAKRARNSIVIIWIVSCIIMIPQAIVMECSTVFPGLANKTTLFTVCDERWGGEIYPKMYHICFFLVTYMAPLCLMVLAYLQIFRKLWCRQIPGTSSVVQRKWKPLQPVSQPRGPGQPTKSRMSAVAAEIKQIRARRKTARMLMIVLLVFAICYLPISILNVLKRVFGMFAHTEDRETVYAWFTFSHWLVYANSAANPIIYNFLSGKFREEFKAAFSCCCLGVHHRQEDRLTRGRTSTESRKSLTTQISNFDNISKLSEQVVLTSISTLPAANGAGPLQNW

By IC50 is commonly meant the concentration needed to halve the response being measured. Take `COc1ccc(C[C@@H]2COCCN2C(=O)c2ccccc2-n2nccn2)cc1-c1ncccn1` [Example 5, [(R)-3-(4-Methoxy-3-pyrimidin-2-yl-benzyl)-morpholin-4-yl]-(2-[1,2,3]triazol-2-yl-phenyl)-methanone]: the IC50 at human orexin-1 receptor (setting [1]) was 4 nM; at human orexin-2 receptor (setting [2]), 2950 nM; at CYP3A4 it was over 50000 nM.

For `Cc1ccc(-n2nccn2)c(C(=O)N2C[C@@H](C)OC[C@H]2Cc2cc(-n3nccn3)ccc2F)c1` [Example 115, [(2R,5R)-5-(2-Fluoro-5-[1,2,3]triazol-2-yl-benzyl)-2-methyl-morpholin-4-yl]-(5-methyl-2-[1,2,3]triazol-2-yl-phenyl)-methanone], the figures for the half-inhibitory concentration (IC50) at human orexin-1 receptor (setting [1]), at human orexin-2 receptor (setting [2]) and on CYP3A4 were 2 nM, 146 nM and 24000 nM, respectively.

As to `C[C@@H]1CN(C(=O)c2ccc(Cl)cc2-n2nccn2)[C@H](Cc2cccc(-n3nccn3)c2)CO1` [Example 185, (4-Chloro-2-[1,2,3]triazol-2-yl-phenyl)-[(2R,5R)-2-methyl-5-(3-[1,2,3]triazol-2-yl-benzyl)-morpholin-4-yl]-methanone], the IC50 turned out to be 2 nM on human orexin-1 receptor (setting [1]), 39 nM at human orexin-2 receptor (setting [2]) and 20000 nM on CYP3A4.

On to `Cc1ccc(C(=O)N2CCOC[C@H]2Cc2cc(-n3nccn3)ccc2C)c(-n2nccn2)c1` [Example 123, [(R)-3-(2-Methyl-5-[1,2,3]triazol-2-yl-benzyl)-morpholin-4-yl]-(4-methyl-2-[1,2,3]triazol-2-yl-phenyl)-methanone], for which the IC50 on human orexin-1 receptor stood at 5 nM; on human orexin-2 receptor, 939 nM; at CYP3A4, 27000 nM.

As to `COc1ccc(C[C@@H]2COCCN2C(=O)c2cc(C)ccc2-n2nccn2)cc1-c1ncon1` [Example 58, [(R)-3-(4-Methoxy-3-[1,2,4]oxadiazol-3-yl-benzyl)-morpholin-4-yl]-(5-methyl-2-[1,2,3]triazol-2-yl-phenyl)-methanone], the IC50 on human orexin-1 receptor (setting [1]) worked out at 0.7 nM; on human orexin-2 receptor (setting [2]) it was 42 nM; on CYP3A4, 42000 nM.

For the molecule `Cc1cccc(C(=O)N2CCOC[C@H]2Cc2cc(Cl)cc(-n3nccn3)c2)c1-n1nccn1` [Example 106, [(R)-3-(3-Chloro-5-[1,2,3]triazol-2-yl-benzyl)-morpholin-4-yl]-(3-methyl-2-[1,2,3]triazol-2-yl-phenyl)-methanone], the results for the IC50 at human orexin-1 receptor (setting [1]), on human orexin-2 receptor (setting [2]) and at CYP3A4 were 3 nM, 335 nM and 14000 nM, respectively.

Turning to `C[C@@H]1CN(C(=O)c2cccc(Cl)c2-n2nccn2)[C@H](Cc2cccc(-n3nccn3)c2)CO1` [Example 172, (3-Chloro-2-[1,2,3]triazol-2-yl-phenyl)-[(2R,5R)-2-methyl-5-(3-[1,2,3]triazol-2-yl-benzyl)-morpholin-4-yl]-methanone], the figures for the IC50 at human orexin-1 receptor (setting [1]), on human orexin-2 receptor (setting [2]) and on CYP3A4 were 3 nM, 93 nM and 23000 nM, respectively.

Regarding `C[C@@H]1COC[C@@H](Cc2cccc(-n3nccn3)c2)N1C(=O)c1ccccc1-n1nccn1` [Example 68, [(3R,5R)-3-Methyl-5-(3-[1,2,3]triazol-2-yl-benzyl)-morpholin-4-yl]-(2-[1,2,3]triazol-2-yl-phenyl)-methanone], the results for the IC50 at human orexin-1 receptor (setting [1]), on human orexin-2 receptor (setting [2]) and on CYP3A4 were 16 nM, 1300 nM and 24000 nM, respectively.

As for `Cc1ccc(C(=O)N2CCOC[C@H]2Cc2cccc(-n3cccn3)c2)c(-n2nccn2)c1` [Example 22, (4-Methyl-2-[1,2,3]triazol-2-yl-phenyl)-[(R)-3-(3-pyrazol-1-yl-benzyl)-morpholin-4-yl]-methanone], the IC50 turned out to be 3 nM at human orexin-1 receptor (setting [1]), 318 nM on human orexin-2 receptor (setting [2]) and 41000 nM on CYP3A4.

In the case of `Cc1ccc(C(=O)N2CCOC[C@H]2Cc2cc(-c3cccnn3)ccc2F)c(-n2nccn2)c1` [Example 166, [(R)-3-(2-Fluoro-5-pyridazin-3-yl-benzyl)-morpholin-4-yl]-(4-methyl-2-[1,2,3]triazol-2-yl-phenyl)-methanone], the IC50 at human orexin-1 receptor (setting [1]) stood at 13 nM; on human orexin-2 receptor (setting [2]), 1400 nM; on CYP3A4, 19000 nM.

With `Cc1cccc(C(=O)N2C[C@@H](C)OC[C@H]2Cc2cccc(-n3nccn3)c2)c1-n1nccn1` [Example 97, [(2R,5R)-2-Methyl-5-(3-[1,2,3]triazol-2-yl-benzyl)-morpholin-4-yl]-(3-methyl-2-[1,2,3]triazol-2-yl-phenyl)-methanone], the IC50 on human orexin-1 receptor (setting [1]) worked out at 3 nM; on human orexin-2 receptor (setting [2]), 237 nM; at CYP3A4, 11000 nM.

Regarding `Cc1ccc(-n2nccn2)cc1C[C@@H]1COCCN1C(=O)c1ccc(Cl)cc1-n1nccn1` [Example 191, (4-Chloro-2-[1,2,3]triazol-2-yl-phenyl)-[(R)-3-(2-methyl-5-[1,2,3]triazol-2-yl-benzyl)-morpholin-4-yl]-methanone], the IC50 turned out to be 12 nM at human orexin-1 receptor (setting [1]), 1040 nM at human orexin-2 receptor (setting [2]) and 14000 nM on CYP3A4.

`O=C(c1ccccc1-n1nccn1)N1CCOC[C@H]1Cc1cccc(-c2ncon2)c1` [Example 1, [(R)-3-(3-[1,2,4]Oxadiazol-3-yl-benzyl)-morpholin-4-yl]-(2-[1,2,3]triazol-2-yl-phenyl)-methanone]: the IC50 on human orexin-1 receptor (setting [1]) was 40 nM; on human orexin-2 receptor (setting [2]), 803 nM; at CYP3A4, over 50000 nM.

For the molecule `C[C@@H]1CN(C(=O)c2ccc(Cl)cc2-n2nccn2)[C@H](Cc2cc(-n3nccn3)ccc2F)CO1` [Example 187, (4-Chloro-2-[1,2,3]triazol-2-yl-phenyl)-[(2R,5R)-5-(2-fluoro-5-[1,2,3]triazol-2-yl-benzyl)-2-methyl-morpholin-4-yl]-methanone], the IC50 at human orexin-1 receptor (setting [1]) was determined as 6 nM; on human orexin-2 receptor (setting [2]), 58 nM; on CYP3A4, 14000 nM.

In the case of `O=C(c1cc(Cl)ccc1-n1nccn1)N1CCOC[C@H]1Cc1cccc(-c2ncccn2)c1` [Example 51, (5-Chloro-2-[1,2,3]triazol-2-yl-phenyl)-[(R)-3-(3-pyrimidin-2-yl-benzyl)-morpholin-4-yl]-methanone], the IC50 on human orexin-1 receptor (setting [1]) stood at 3 nM; on human orexin-2 receptor (setting [2]), 229 nM; on CYP3A4 it was 20000 nM.

With `O=C(c1ccc(Cl)cc1-n1nccn1)N1CCOC[C@H]1Cc1cc(-n2nccn2)ccc1Cl` [Example 170, [(R)-3-(2-Chloro-5-[1,2,3]triazol-2-yl-benzyl)-morpholin-4-yl]-(4-chloro-2-[1,2,3]triazol-2-yl-phenyl)-methanone], the results for the IC50 on human orexin-1 receptor (setting [1]), on human orexin-2 receptor (setting [2]) and at CYP3A4 were 7 nM, 451 nM and 9800 nM, respectively.

On to `Cc1ccc(-n2nccn2)c(C(=O)N2CCOC[C@H]2Cc2cccc(-c3nccs3)c2)c1` [Example 43, (5-Methyl-2-[1,2,3]triazol-2-yl-phenyl)-[(R)-3-(3-thiazol-2-yl-benzyl)-morpholin-4-yl]-methanone], for which the concentration for half-maximal inhibition (IC50) on human orexin-1 receptor (setting [1]) turned out to be 0.3 nM; at human orexin-2 receptor (setting [2]), 273 nM; at CYP3A4, 1200 nM.

Take `COc1ccc(-n2nccn2)c(C(=O)N2CCOC[C@H]2Cc2cccc(-c3ncccn3)c2)c1` [Example 50, (5-Methoxy-2-[1,2,3]triazol-2-yl-phenyl)-[(R)-3-(3-pyrimidin-2-yl-benzyl)-morpholin-4-yl]-methanone]: the IC50 on human orexin-1 receptor (setting [1]) was 2 nM; at human orexin-2 receptor (setting [2]), 942 nM; on CYP3A4, over 50000 nM.

Take `O=C(c1ccccc1-n1nccn1)N1CCOC[C@H]1Cc1cccc(-c2ncco2)c1` [Example 42, [(R)-3-(3-Oxazol-2-yl-benzyl)-morpholin-4-yl]-(2-[1,2,3]triazol-2-yl-phenyl)-methanone]: the IC50 on human orexin-1 receptor (setting [1]) is 34 nM; at human orexin-2 receptor (setting [2]), 2010 nM; at CYP3A4, 5100 nM.
